# Where two headings read alike, the source gives them in different places.
# Tested on: Klebsiella pneumoniae ZFM4
# Experiment: Antibiotic resistance of ZFM4 by disk diffusion method
# Assay type: cell-based
# Settings: for antibiotic resistance of ZFM4 (in words): disk diffusion method
# Procedure: The antibiotic susceptibility test disk was purchased from Hangzhou Microbial Reagent Co., Ltd., including amoxicillin, cefuroxime, gentamycin, erythromycin, vancomycin, tetracycline, penicillin, ciprofloxacin, streptomycin, and chloramphenicol.
# The antibiotic resistance of Klebsiella pneumoniae ZFM4 was evaluated by disk diffusion method. 100 μL of the second-generation bacterial culture of Klebsiella pneumoniae ZFM4 was coated on LB solid medium and the antibiotic susceptibility test disk was placed on the plate. After aerobically incubation at 37° C. for 48 hrs, the diameter of the inhibition zone was measured. […] That is, Klebsiella pneumoniae ZFM4 had multiple drug resistance.
compound,measurement,setting,value
CC1(C)S[C@@H]2[C@H](NC(=O)[C@H](N)c3ccc(O)cc3)C(=O)N2[C@H]1C(=O)O [Amoxicillin],zone of inhibition at 25 µg/disc,"Klebsiella pneumoniae, ZFM4, Amoxicillin disk 25 μg/tablet, 37° C., 48 hrs, read-out: Drug resistance evaluation result",< 13 mm
same,antibiotic resistance of ZFM4 (in words),,resistant
CO/N=C(\C(=O)N[C@@H]1C(=O)N2C(C(=O)O)=C(COC(N)=O)CS[C@H]12)c1ccco1 [Cefuroxime],zone of inhibition at 30 µg/disc,"Klebsiella pneumoniae, ZFM4, Cefuroxime disk 30 μg/tablet, 37° C., 48 hrs, read-out: Drug resistance evaluation result",< 10 mm
same,antibiotic resistance of ZFM4 (in words),,resistant
O=C(N[C@H](CO)[C@H](O)c1ccc([N+](=O)[O-])cc1)C(Cl)Cl [Chloramphenicol],zone of inhibition at 30 µg/disc,"Klebsiella pneumoniae, ZFM4, Chloramphenicol disk 30 μg/tablet, 37° C., 48 hrs, read-out: Drug resistance evaluation result",< 12 mm
same,antibiotic resistance of ZFM4 (in words),,resistant
O=C(O)c1cn(C2CC2)c2cc(N3CCNCC3)c(F)cc2c1=O [Ciprofloxacin],zone of inhibition at 5 µg/disc,"Klebsiella pneumoniae, ZFM4, Ciprofloxacin disk 5 μg/tablet, 37° C., 48 hrs, read-out: Drug resistance evaluation result",15 to 21 mm
same,antibiotic resistance of ZFM4 (in words),,moderately resistant
CC[C@H]1OC(=O)[C@H](C)[C@@H](O[C@H]2C[C@@](C)(OC)[C@@H](O)[C@H](C)O2)[C@H](C)[C@@H](O[C@@H]2O[C@H](C)C[C@H](N(C)C)[C@H]2O)[C@](C)(O)C[C@@H](C)C(=O)[C@H](C)[C@@H](O)[C@]1(C)O [Erythromycin],zone of inhibition at 15 µg/disc,"Klebsiella pneumoniae, ZFM4, Erythromycin disk 15 μg/tablet, 37° C., 48 hrs, read-out: Drug resistance evaluation result",< 13 mm
same,antibiotic resistance of ZFM4 (in words),,resistant
[H]/N=C(/N)N[C@H]1[C@H](O)[C@@H](O)[C@H](O[C@@H]2O[C@@H](C)[C@](O)(C=O)[C@H]2O[C@@H]2O[C@@H](CO)[C@H](O)[C@@H](O)[C@@H]2NC)[C@@H](N/C(N)=N\[H])[C@@H]1O [Streptomycin],zone of inhibition at 10 µg/disc,"Klebsiella pneumoniae, ZFM4, Streptomycin disk 10 μg/tablet, 37° C., 48 hrs, read-out: Drug resistance evaluation result",11 to 15 mm
same,antibiotic resistance of ZFM4 (in words),,moderately resistant
CN(C)[C@@H]1C(O)=C(C(N)=O)C(=O)[C@@]2(O)C(O)=C3C(=O)c4c(O)cccc4[C@@](C)(O)[C@H]3C[C@@H]12 [Tetracycline],zone of inhibition at 30 µg/disc,"Klebsiella pneumoniae, ZFM4, Tetracycline disk 30 μg/tablet, 37° C., 48 hrs, read-out: Drug resistance evaluation result",> 15 mm
CN[C@H](CC(C)C)C(=O)N[C@H]1C(=O)N[C@@H](CC(N)=O)C(=O)N[C@H]2C(=O)N[C@H]3C(=O)N[C@H](C(=O)N[C@H](C(=O)O)c4cc(O)cc(O)c4-c4cc3ccc4O)[C@H](O)c3ccc(c(Cl)c3)Oc3cc2cc(c3O[C@@H]2O[C@H](CO)[C@@H](O)[C@H](O)[C@H]2O[C@H]2C[C@](C)(N)[C@H](O)[C@H](C)O2)Oc2ccc(cc2Cl)[C@H]1O [Vancomycin],zone of inhibition at 30 µg/disc,"Klebsiella pneumoniae, ZFM4, 48 h, read-out: Drug resistance evaluation result",< 14 mm
same,antibiotic resistance of ZFM4 (in words),,resistant
Gentamicin,Drug resistance evaluation result,"Gentamicin disk 10 μg/tablet, 37° C., 48 hrs",R (≤12)
same,antibiotic resistance of ZFM4 (in words),,resistant
Penicillin,Drug resistance evaluation result,"Penicillin disk 10 μg/tablet, 37° C., 48 hrs",R (≤14)
same,antibiotic resistance of ZFM4 (in words),,resistant
